Consider 17 compounds from patent publication US8546430B2, “Thalidomide analogs” (P2D, Inc., priority 2003, dated 2013).

What is called melting point is the temperature of the solid-liquid transition. The IC50 is the midpoint of a concentration-inhibition curve. Low readings indicate higher potency, high ones lower potency. In general, inhibition refers to how much of the control response was suppressed. Lower therefore signals little suppression. The % Inhibition is the change of the read-out against control, counted positive when it falls. Read a high % Inhibition as a response far below the control. One may read the EC50 as the concentration giving half of the maximal effect. Higher therefore signals weaker potency.

The subject of one data set is rat aortic ring. The data set can be described thus: Rat aortic ring microvessel growth assay. The format is cell-based. The following applies: 0.1-20 μg/ml daily for 4 days; FIGS. 2-11. Here is the method:
The angiogenesis modulating activity of representative compounds was assessed in a rat aortic ring microvessel growth assay. Briefly, twelve-well tissue culture plates were coated with 250 μl of Matrigel (Becton-Dickinson, Bedford, Mass.) and allowed to gel for 30 min at 37° C. and 5% CO2. Thoracic aortas were excised from 8- to 10-week-old male Sprague Dawley rats. After careful removal of fibroadipose tissues, the aortas were cut into 1-mm-long cross-sections, placed on Matrigel-coated wells, and covered with an additional 250 μl of Matrigel. After the second layer of Matrigel had set, the rings were covered with EGM-II and incubated overnight at 37° C. and 5% CO2. EGM-II consists of endothelial cell basal medium (EBM-II; Clonetics, San Diego, Calif.) plus endothelial cell growth factors provided as the EGM-II Bulletkit (Clonetics). The culture medium was subsequently changed to EBM-II supplemented with 2% fetal bovine serum, 0.25 μg/ml amphotericin B, and 10 μg/ml gentamicin. Aortic rings were treated daily with either the vehicle (0.5% DMSO), carboxyamidotriazole (CAI, 12 μg/ml), thalidomide or thalidomide analogs (0.1-20 μg/ml) for 4 days and photographed on the 5th day using a ×2.5 objective. CAI, a known antiangiogenic agent, was used at higher than clinically achievable concentration as a positive control. Experiments were repeated four times using aortas from four different rats. The area of angiogenic sprouting, reported in square pixels, was quantified using Adobe PhotoShop. Further details of the method are provided in Luzzio et al., J Med Chem.; 46:3793-9, 2003, which is incorporated by reference herein. It should be understood that this method can be used as an assay to rapidly select compounds having a desired angiogenic or anti-angiogenic effect, for example, for use in the disclosed methods of treating a subject.

For the next data set, the system named is TNF-α. Put plainly: Inhibition of LPS-induced TNF-α secretion in human PBMC (ELISA). The format is cell-based. The following applies: for IC50 / inhibition at 30 µM / % Inhibition at 30 μM: LPS-induced TNF-α production in PBMC; for TNF-α inhibitory activity (in words): LPS-stimulated PBMC. Here is the method: (§1) The action of the these thiothalidomide analogs in inhibiting TNF-α secretion was assessed in human peripheral blood mononuclear cells (PBMC) and the results are shown in Table 1. Freshly prepared PBMCs were utilized in all studies. Blood, 40 ml, was drawn from a volunteer, immediately mixed with 50 U/ml Na heparin and was diluted to 50 ml total volume with sterile PBS. Samples, 20 ml, of this preparation then were layered on 20 ml Ficoll-Paque and were centrifuged (800 g, 20 min). The Ficoll/serum interface, containing PBMCs, was collected, diluted to 200 ml with PBS, and then was centrifuged (800 g, 15 min) to pellet the cells. Thereafter, the recovered pellet was re-suspended in 37° C. tissue culture medium (RPMI/1 mM Sodium pyruvate/10% heat inactivated FBS/2 mM Glutamax) and placed on ice. Recovered cells were counted, pipetted (200 ul of 5×10^5/ml) into 96 well plates, and incubated for an hour (37° C., 5% CO2). Thereafter, appropriate concentrations of test compounds or vehicle (10 ul DMSO) were added to duplicate wells. Following a further hour of incubation, a 10 ul sample of lipopolysaccharide (LPS) (100 ng/ml in supplemented medium) or vehicle was added to induce stimulated and unstimulated cells, respectively, and the cells were incubated overnight. Sixteen hours later, supernatants were collected for quantification of TNF-α levels by ELISA assay (Pierce-Endogen human TNF-α mini kit, Rockford, Ill.) and the use of specific capture and detection monoclonal antibodies, M303E and M302B (Pierce-Endogen), respectively. ELISA plates were read at λ=450 nm and TNF-α levels were determined from a six-point calibration curve that was run concurrently with the test samples. The effect of test drug concentrations on the cellular viability of PBMCs was assessed by MTS assay (Promega, Madison, Wis.) of the cells that provided the supernatant samples assayed for TNF-α levels, described above. It should be understood that this method can be used to test any of the disclosed compounds as a screening assay for readily determining their TNF-α modulating activity, and for selecting them for use in the disclosed method of treating a subject.
For orientation: In an ELISA, binding on a coated surface is turned into a signal by an enzyme label.

Another data set deals with PBMC. The data set can be described thus: Cellular viability of PBMCs by MTS assay. The format is cell-based, human. Here is the method: as §1
Background: Tetrazolium dyes change colour on reduction, which living cells bring about.

Entries after “also recorded” stand apart in the source; their conditions may differ.

On to `CC12CCC(C(=O)NC3CCC(=O)NC3=O)(OC1=O)C2(C)C` (stereo not drawn) [3-Camphanic amino-2,6-piperidinedione], for which the “Angiogenic modulating activity (in words)” value in the data set on rat aortic ring is given as “potent angiogenic activity at all concentrations tested; also recorded: exhibited angiogenic activity”.

On to `COc1ccc(N2C(=O)c3ccccc3C2=O)c(OC)n1` [Compound 5, 1,3-Dioxo-2-(2,6-dimethoxypyridin-3-yl)-isoindoline], for which the “Angiogenic modulating activity (in words)” value in the data set with rat aortic ring is “angiogenic activity at all concentrations tested”.

For the compound `Br.COc1ccc(N2C(=O)c3ccccc3C2=O)c(O)n1` [Compound 6, 1,3-Dioxo-2-(2-hydroxy-6-methoxypyridin-3-yl)-isoindoline hydrobromide], the “Angiogenic modulating activity (in words)” value in the data set on rat aortic ring is “anti-angiogenic activity in the rat aortic ring assay at all concentrations tested”.

For `NC(=O)c1cc2ccccc2cc1C(=O)NC1CCC(=O)NC1=O` (stereo not drawn) [Compound 14, N-(2,6-dioxopiperidin-3-yl)-2,3-naphthalenedicarboxamide], the melting point was > 300 °C.

Regarding `CC(=O)Oc1ccccc1C(=O)NC1CCC(=O)NC1=O` (stereo not drawn) [Compound 24, 2-acetoxy-N-(2,6-dioxopiperidin-3-yl)benzamide], the “Angiogenic modulating activity (in words)” value in the data set on rat aortic ring is “potent angiogenic activity”.

For the compound `O=C1NC(=S)CCC1N1C(=O)c2ccccc2C1=O` (stereo not drawn) [Compound 205, 2-(2-Oxo-6-thioxo-3-piperidinyl)-1H-isoindole-1,3(2H)-dione], the melting point fell in the range of 225 to 226 °C. For the same compound, in the data set on TNF-α, the “Inhibition of TNF-α secretion at 30 μM (in words)” value (“Inhibition of TNF-α secretion” for short) is on record as “only marginal activity”. In the data set on TNF-α (Homo sapiens), the IC50 was > 30 µM and 30 µM produced 31% inhibition. In the data set with rat aortic ring, the “Angiogenic modulating activity (in words)” value is “anti-angiogenic activity at higher concentration, and some angiogenic activity at lower concentrations”. In the data set on PBMC, the Cell viability at 0.3 μM was 96%, the Cell viability at 3 μM is 90% and the Cell viability at 30 μM is > 100%.

As for `COC(=O)CCC(C(=O)OC)N1C(=O)c2ccccc2C1=S` (stereo not drawn) [Compound 208, Dimethyl 2-(1,3-dihydro-1-oxo-3-thioxo-2H-isoindol-2-yl)-pentanedioate], in the data set on TNF-α (Homo sapiens), the IC50 stood at 20 µM and testing at 30 µM gave an inhibition of 56%. Besides, in the data set with PBMC, the “Toxicity / cytotoxicity (in words)” value is “without toxicity”, the Cell viability at 0.3 μM stood at 96%, the Cell viability at 3 μM was 99% and the Cell viability at 30 μM was 93%.

In the data set with TNF-α (Homo sapiens), `COC(=O)CCC(C(=O)OC)N1C(=S)c2ccccc2C1=S` (stereo not drawn) [Compound 209, Dimethyl 2-(1,3-dihydro-1,3-dithioxo-2H-isoindol-2-yl)-pentanedioate] had an IC50 of 10 µM and an inhibition at 30 µM of 85%. Also, in the data set with TNF-α (TNF-α inhibitory action), the “Fold more potent than 208” value turned out to be 2 fold. In the data set on PBMC, the “Toxicity / cytotoxicity (in words)” value was “induced cellular toxicity at lower concentrations”, the Cell viability at 0.3 μM was determined as 89%, the Cell viability at 3 μM is 86% and the Cell viability at 30 μM is 57%.

With `O=C1c2ccccc2C(=NCc2ccccc2)N1Cc1ccccc1` [Compound 210, 3-Benzylimino-2-benzyl-2,3-dihydroisoindol-1-one], the “Angiogenic modulating activity (in words)” value in the data set on rat aortic ring was “exhibited angiogenic activity”.

Compound `O=C1CCC(N2C(=O)c3ccccc3C2=S)C(=O)N1` (stereo not drawn) [Compound 212, 2,3-Dihydro-3-thioxo-2-(2,6-dioxo-3-piperidinyl)-1H-isoindol-1-one] returned a melting point of 255 °C. Further, in the data set with TNF-α, the “Inhibition of TNF-α secretion” value is on record as “only marginal activity”. For the same compound, in the data set on TNF-α (Homo sapiens), the IC50 is > 30 µM and testing at 30 µM gave an inhibition of 23%. In addition, in the data set on PBMC, the Cell viability at 0.3 μM worked out at 94%, the Cell viability at 3 μM stood at 100% and the Cell viability at 30 μM was determined as 94%.

Take `O=C1CCCC(=S)N1` [Compound 218, 6-Thioxo-2-piperidinone]: the melting point is 135 °C. In addition, in the data set on TNF-α, the “Inhibition of TNF-α secretion” value is on record as “minimally inhibited TNF-α secretion”. Also, in the data set with TNF-α (Homo sapiens), the IC50 is > 30 µM and at 30 µM the inhibition was 15%. In the data set with PBMC, the Cell viability at 0.3 μM came to 86%, the Cell viability at 3 μM was 84% and the Cell viability at 30 μM was > 100%.

Consider `O=C1c2ccccc2C(=O)N1C1CC=CCC1` (stereo not drawn) [Compound 221, 2-(3-Cyclohexenyl)-1H-isoindole-1,3(2H)-dione], for which the melting point was 114 °C.

With `S=C1c2ccccc2C(=S)N1C1CC=CCC1` (stereo not drawn) [Compound 222, 2-(3-Cyclohexenyl)-1H-isoindol-1,3(2H)-dithione], in the data set with TNF-α, it took 15 µM to reach half-maximal inhibition (IC50), the “% Inhibition at 30 μM” value was 86% and the “TNF-α inhibitory activity (in words)” value is given as “active TNF-α inhibitors”. Also, the “Angiogenic modulating activity (in words)” value in the data set with rat aortic ring is “anti-angiogenic activity at higher concentrations and angiogenic activity at lower concentrations”. In the data set with PBMC, the “Toxicity / cytotoxicity (in words)” value is “some toxicity at 30 μM”, the Cell viability at 0.3 μM stood at 96%, the Cell viability at 3 μM was 94% and the Cell viability at 30 μM was 50%.

`O=C1c2ccccc2C(=S)N1C1CC=CCC1` (stereo not drawn) [Compound 223, 2,3-dihydro-3-thioxo-2-(3-cyclohexenyl)-1H-isoindol-1-one] yielded a melting point of 67 to 68 °C. In the data set on TNF-α (Homo sapiens), this compound came in with an IC50 of 16 µM and an inhibition at 30 µM of 85%. Further, the “TNF-α inhibitory activity (in words)” value in the data set on TNF-α is reported as “active TNF-α inhibitors”. Also, in the data set on PBMC, the “Toxicity / cytotoxicity (in words)” value was “some toxicity at 30 μM”, the Cell viability at 0.3 μM turned out to be 99%, the Cell viability at 3 μM is 89% and the Cell viability at 30 μM stood at 57%.

For `S=C1NC(=S)c2ccccc21` [Compound 224, dithiophthalimide], in the data set on TNF-α (Homo sapiens), half-maximal inhibition (IC50) was put at 3 µM and the inhibition at 30 µM was determined as 95%. Also, in the data set with TNF-α, the “TNF-α inhibitory activity (in words)” value was “potent activity”. For the same compound, in the data set on rat aortic ring, the “Angiogenic modulating activity (in words)” value was “angiogenic activity at all concentrations tested”. Moreover, in the data set on PBMC, the “Toxicity / cytotoxicity (in words)” value was “associated with toxicity at 30 μM”, the Cell viability at 0.3 μM came out at 83%, the Cell viability at 3 μM worked out at 83% and the Cell viability at 30 μM was 54%.

The compound `Nc1ccc2c(=O)n(C3CCC(=O)NC3=O)c(=O)oc2c1` (stereo not drawn) [Compound 228, 3-[2′,6′-piperidinedion-3′-yl]-7-amino-2H-1,3-benzoxazine-2,4(3H)-dione] gave an EC50 with TNF-α (Homo sapiens, PBMC, TNF-α assay of Example 11) of 0.4 µM. The “TNF-α inhibitory activity (in words)” value in the data set with TNF-α was “potent inhibitory action on TNF-α”.

On to Monothiophthalimide [Compound 225], for which, in the data set with TNF-α, the “Inhibition of TNF-α secretion” value is “marginal TNF-α activity”, the IC50 is > 30 µM and the “% Inhibition at 30 μM” value was 34%. In addition, in the data set on PBMC, the “Toxicity / cytotoxicity (in words)” value is “without toxicity”, the Cell viability at 0.3 μM was 94%, the Cell viability at 3 μM was determined as 94% and the Cell viability at 30 μM is > 100%.
